Source: PubChem BioAssay (NCI)
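Compound exposure: 48 hours, 5 concentrations, 96-well plates. Here, GI50 denotes the concentration required for 50% inhibition of growth. TGI: total growth inhibition.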

How the values were obtained:
Assay in all cases: DTP human tumour cell line panel, 48 h
A549 NSCLC = test system: A549 NSCLC
HT29 colon = test system: HT29 colon
LOX IMVI melanoma = test system: LOX IMVI melanoma
OVCAR-8 ovarian = test system: OVCAR-8 ovarian
RXF 393 renal = test system: RXF 393 renal
SF-539 CNS = test system: SF-539 CNS
T-47D breast = test system: T-47D breast
TK-10 renal = test system: TK-10 renal

For `N[C@@H]1C(=O)N2C(C(=O)OC(c3ccccc3)c3ccccc3)=C(CCl)CS[C@H]12`, the GI50 (A549 NSCLC) was greater than 67.5 µM, the TGI (A549 NSCLC) was greater than 100 µM and the GI50 (HT29 colon) was 30.2 µM. For the same molecule, the TGI (HT29 colon) was greater than 94 µM, the GI50 (LOX IMVI melanoma) was 24.9 µM and the TGI (LOX IMVI melanoma) was 65 µM. The GI50 (OVCAR-8 ovarian) was 27.3 µM, the TGI (OVCAR-8 ovarian) was greater than 77 µM and the GI50 (RXF 393 renal) was 26.4 µM. For the same molecule, the TGI (RXF 393 renal) was 63.7 µM, the GI50 (SF-539 CNS) was 23.5 µM and the TGI (SF-539 CNS) was 50.2 µM. The GI50 (T-47D breast) was 46 µM, the TGI (T-47D breast) was greater than 100 µM and the GI50 (TK-10 renal) was 50.1 µM. It also gave a TGI (TK-10 renal) greater than 100 µM.
`COc1ccc2c(c1)CC[C@@H]1[C@@H]2CC[C@]2(C)[C@@H](NC(=O)/C=C/c3ccc(O)c(O)c3)CC[C@@H]12` was tested, and the GI50 (A549 NSCLC) was 4.58 µM, the TGI (A549 NSCLC) was 17.6 µM and the GI50 (HT29 colon) was 4.74 µM. The TGI (HT29 colon) was greater than 100 µM, the GI50 (LOX IMVI melanoma) was 3.15 µM and the TGI (LOX IMVI melanoma) was 13.7 µM. For the same molecule, the GI50 (OVCAR-8 ovarian) was 4.2 µM, the TGI (OVCAR-8 ovarian) was 16.7 µM and the GI50 (RXF 393 renal) was 7.94 µM. For the same molecule, the TGI (RXF 393 renal) was 46 µM, the GI50 (SF-539 CNS) was 4.1 µM and the TGI (SF-539 CNS) was 15.6 µM. The GI50 (T-47D breast) was 17.3 µM, the TGI (T-47D breast) was 43 µM and the GI50 (TK-10 renal) was 1.47 µM. The TGI (TK-10 renal) was 6.6 µM.
With `Oc1ccc(O)c(-c2cc(-c3ccc(Cl)cc3)nn2-c2ccccc2)c1` the GI50 (A549 NSCLC) was 7.56 µM, the TGI (A549 NSCLC) was 31 µM and the GI50 (OVCAR-8 ovarian) was 4.51 µM. The TGI (OVCAR-8 ovarian) was greater than 100 µM, the GI50 (SF-539 CNS) was 31 µM and the TGI (SF-539 CNS) was 52.5 µM. The GI50 (TK-10 renal) was 6.58 µM and the TGI (TK-10 renal) was 25.6 µM.
For `O=C(O)C1CCCCC1c1c2ccc(=O)c(O)c-2oc2c(O)c(O)ccc12` (stereo not given), the TGI (A549 NSCLC) was 48.6 µM, the TGI (HT29 colon) was greater than 100 µM and the TGI (LOX IMVI melanoma) was 32.6 µM. The TGI (OVCAR-8 ovarian) was 88.7 µM, the TGI (RXF 393 renal) was greater than 100 µM and the TGI (T-47D breast) was greater than 100 µM. It also gave a TGI (TK-10 renal) greater than 100 µM.
Work on `COc1cc2c(cc1OC)C(Sc1ccc(SC)cc1)c1c(nc(N)c(C#N)c1N)O2` (stereo not given) yielded a GI50 (A549 NSCLC) of 2.05 µM, a TGI (A549 NSCLC) of 3.68 µM and a GI50 (LOX IMVI melanoma) of 1.28 µM. It also gave a TGI (LOX IMVI melanoma) of 2.55 µM, a GI50 (OVCAR-8 ovarian) of 1.93 µM and a TGI (OVCAR-8 ovarian) of 3.47 µM. The GI50 (RXF 393 renal) was 1.25 µM, the TGI (RXF 393 renal) was 2.52 µM and the GI50 (SF-539 CNS) was 1.55 µM. For the same molecule, the TGI (SF-539 CNS) was 2.88 µM, the GI50 (T-47D breast) was 1.62 µM and the TGI (T-47D breast) was 4.26 µM. It also gave a GI50 (TK-10 renal) of 1.6 µM and a TGI (TK-10 renal) of 2.95 µM.
`COC1=C(C)C(=O)c2c(c(CCCl)c3n2CCC3O)C1=O` (stereo not given) gave a GI50 (HT29 colon) of 0.197 µM, a TGI (HT29 colon) of 0.67 µM and a GI50 (LOX IMVI melanoma) of 0.592 µM. For the same molecule, the TGI (LOX IMVI melanoma) was 5.23 µM, the GI50 (OVCAR-8 ovarian) was 1.78 µM and the TGI (OVCAR-8 ovarian) was 23.9 µM. The GI50 (RXF 393 renal) was 0.226 µM, the TGI (RXF 393 renal) was 0.597 µM and the GI50 (SF-539 CNS) was 0.302 µM. For the same molecule, the TGI (SF-539 CNS) was 1.16 µM, the GI50 (T-47D breast) was 16.3 µM and the TGI (T-47D breast) was greater than 82.9 µM. The GI50 (TK-10 renal) was 0.296 µM and the TGI (TK-10 renal) was 0.763 µM.
For `COc1cccc(-c2ccc3c(c2)C2CCN(Cc4ccccc4)C3C2)c1` (stereo not given), the GI50 (A549 NSCLC) was 7.72 µM, the TGI (A549 NSCLC) was 31.8 µM and the GI50 (HT29 colon) was 3.24 µM. For the same molecule, the TGI (HT29 colon) was 12.2 µM, the GI50 (LOX IMVI melanoma) was 10.2 µM and the TGI (LOX IMVI melanoma) was 26.8 µM. The GI50 (OVCAR-8 ovarian) was 11.2 µM, the TGI (OVCAR-8 ovarian) was 32.5 µM and the GI50 (RXF 393 renal) was 10.1 µM. For the same molecule, the TGI (RXF 393 renal) was 24.6 µM, the GI50 (SF-539 CNS) was 10.3 µM and the TGI (SF-539 CNS) was 23 µM. It also gave a GI50 (T-47D breast) of 5.19 µM and a TGI (T-47D breast) of 38.5 µM.
Work on `COC(=O)C(=CNC(N)=O)C(=O)OC` yielded a TGI (A549 NSCLC) greater than 100 µM, a TGI (HT29 colon) greater than 100 µM and a TGI (LOX IMVI melanoma) greater than 100 µM. For the same molecule, the TGI (OVCAR-8 ovarian) was greater than 100 µM, the TGI (SF-539 CNS) was greater than 100 µM and the TGI (T-47D breast) was greater than 100 µM. For the same molecule, the TGI (TK-10 renal) was greater than 100 µM.
`O=C(O)C1CC2(C1)CC(C(=O)O)C2` (stereo not given) showed a TGI (A549 NSCLC) greater than 100 µM, a TGI (HT29 colon) greater than 100 µM and a TGI (LOX IMVI melanoma) greater than 100 µM. It also gave a TGI (RXF 393 renal) greater than 100 µM, a TGI (SF-539 CNS) greater than 100 µM and a TGI (T-47D breast) greater than 100 µM. The TGI (TK-10 renal) was greater than 100 µM.
Work on `Cc1cc(S(=O)(=O)/N=C/N(C)C)c(SC(=O)c2ccc(Cl)cc2)cc1Cl` yielded a GI50 (A549 NSCLC) of 34.1 µM, a TGI (A549 NSCLC) of 85.2 µM and a GI50 (LOX IMVI melanoma) of 19.1 µM. For the same molecule, the TGI (LOX IMVI melanoma) was 35.2 µM, the GI50 (OVCAR-8 ovarian) was 40.9 µM and the TGI (OVCAR-8 ovarian) was greater than 100 µM. It also gave a GI50 (RXF 393 renal) of 11.5 µM, a TGI (RXF 393 renal) of 35.7 µM and a GI50 (SF-539 CNS) of 26.7 µM. For the same molecule, the TGI (SF-539 CNS) was 52.1 µM, the GI50 (TK-10 renal) was 28.2 µM and the TGI (TK-10 renal) was 80.7 µM.
In the case of `COC(=O)C1OC2(CCCC3CC32)O[C@H]1C(=O)OC` (stereo not given in full), the TGI (A549 NSCLC) is reported as greater than 100 µM, the TGI (HT29 colon) is reported as greater than 100 µM and the TGI (LOX IMVI melanoma) is reported as greater than 100 µM. The TGI (OVCAR-8 ovarian) was greater than 100 µM, the TGI (RXF 393 renal) was greater than 100 µM and the TGI (SF-539 CNS) was greater than 100 µM. The TGI (TK-10 renal) was greater than 100 µM.
In the case of `Cc1cn(C2C=CC(CO)O2)c(=O)[nH]c1=O` (stereo not given), the TGI (A549 NSCLC) is reported as greater than 1000 µM, the TGI (HT29 colon) is reported as greater than 1000 µM and the TGI (LOX IMVI melanoma) is reported as greater than 1000 µM. It also gave a TGI (OVCAR-8 ovarian) greater than 1000 µM, a TGI (SF-539 CNS) greater than 1000 µM and a TGI (T-47D breast) greater than 1000 µM. For the same molecule, the TGI (TK-10 renal) was greater than 1000 µM.
`Nc1cc(O)ccc1N=Nc1ccc(-c2nc3ccccc3[nH]2)cc1` showed a GI50 (A549 NSCLC) greater than 100 µM, a TGI (A549 NSCLC) greater than 100 µM and a GI50 (LOX IMVI melanoma) of 7.6 µM. The TGI (LOX IMVI melanoma) was 37.1 µM, the GI50 (OVCAR-8 ovarian) was 10.7 µM and the TGI (OVCAR-8 ovarian) was 52.5 µM. It also gave a GI50 (T-47D breast) of 29.9 µM, a TGI (T-47D breast) greater than 100 µM and a GI50 (TK-10 renal) of 16.1 µM. For the same molecule, the TGI (TK-10 renal) was greater than 100 µM.
Molecule `COc1ccc(S(=O)(=O)NC2=NCCN2C(=S)SN2CCn3c2nsc3=S)cc1` has a GI50 (A549 NSCLC) of 23.4 µM, a TGI (A549 NSCLC) of 79.4 µM and a GI50 (HT29 colon) of 32.4 µM. The TGI (HT29 colon) was greater than 100 µM, the GI50 (LOX IMVI melanoma) was 15.5 µM and the TGI (LOX IMVI melanoma) was 33.1 µM. For the same molecule, the GI50 (OVCAR-8 ovarian) was 27.3 µM, the TGI (OVCAR-8 ovarian) was greater than 100 µM and the GI50 (RXF 393 renal) was 4.11 µM. For the same molecule, the TGI (RXF 393 renal) was 22.1 µM, the GI50 (T-47D breast) was 18.3 µM and the TGI (T-47D breast) was 49.1 µM. The GI50 (TK-10 renal) was 15.9 µM and the TGI (TK-10 renal) was 30.2 µM.
In the case of `Cc1ccc(/C=C2\CN(C(=O)C(Cl)Cl)C/C(=C\c3ccc(C)cc3)C2=O)cc1`, the GI50 (A549 NSCLC) is reported as 0.293 µM, the GI50 (HT29 colon) is reported as 0.241 µM and the GI50 (LOX IMVI melanoma) is reported as 0.0621 µM. For the same molecule, the TGI (LOX IMVI melanoma) was 0.199 µM, the GI50 (OVCAR-8 ovarian) was 0.357 µM and the TGI (OVCAR-8 ovarian) was greater than 100 µM. The GI50 (RXF 393 renal) was 0.216 µM, the TGI (RXF 393 renal) was 0.507 µM and the GI50 (SF-539 CNS) was 0.227 µM. It also gave a TGI (SF-539 CNS) of 0.567 µM, a GI50 (TK-10 renal) of 0.57 µM and a TGI (TK-10 renal) of 6.04 µM.
